Assay results reported in PMC12061717, “Molecular characterization of a Minus-C odorant-binding protein from Cyrtotrachelus buqueti (Coleoptera: Curculionidae)” (Frontiers in Physiology, 2025).
Where two headings read alike, the source gives them in different places.

Tests used:
CbuqOBP1 [1] = target: T1, CbuqOBP1 (Cyrtotrachelus buqueti, UniProt A0A1L3KPS8); assay: Fluorescence competition binding assay with 1-NPN as probe; conditions: for Ki: K i = [IC50]/(1 + [1-NPN]/K 1-NPN), CbuqOBP1 and 1-NPN both 2 μM, pH 7.4
T1 sequence (A0A1L3KPS8 entry or part of it): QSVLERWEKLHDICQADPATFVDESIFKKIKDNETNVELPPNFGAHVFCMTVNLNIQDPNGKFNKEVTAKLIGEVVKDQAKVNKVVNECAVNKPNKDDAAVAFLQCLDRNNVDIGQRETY
Procedure: (§1) The fluorescence competition binding assays were carried out with a F-7000 fluorescence spectrophotometer (Hitachi, Tokyo, Japan) at room temperature using a 1 cm wide light-path fluorimeter quartz cuvette and 10 nm slits for both excitation and emission. The purified CbuqOBP1 was dissolved in 50 mM Tris–HCl buffer (pH 7.4) to a final concentration of 2 μM, while all ligands used in binding experiments were dissolved in chromatographic methanol to a final concentration of 1 mM.
N-phenyl-1-naphthylamine (1-NPN) (Aladdin Biochemical Technology Co., LTD., Shanghai, China) was used as the fluorescent probe. The probe was excited at 337 nm and emission spectra were recorded between 350 and 550 nm.
Based on the above studies, a total of nine candidate volatiles were selected as test ligands, including eight volatiles emitted by female adults of C. buqueti and the linalool released from the host plant N. affinis (Table 1). All these compounds were purchased from Aladdin Biochemical Technology Co., LTD. (Shanghai, China) with a purity of at least more than 90%. […] Binding data were collected as three independent measurements.

CbuqOBP1 [2] = target: T1, CbuqOBP1; assay: Binding of fluorescent probe 1-NPN to CbuqOBP1 (titration, Scatchard plot); conditions: 2 μM protein titrated with 1-NPN 2 to 40 μM, read-out: K 1-NPN (dissociation constant of CbuqOBP1/1-NPN complex)
Procedure: as §1
N-phenyl-1-naphthylamine (1-NPN) (Aladdin Biochemical Technology Co., LTD., Shanghai, China) was used as the fluorescent probe. The probe was excited at 337 nm and emission spectra were recorded between 350 and 550 nm. […] Assuming that 1-NPN binds to the protein at a 1:1 ratio and that the protein was 100% active, a Scatchard plot analysis of the binding data was performed to calculate the dissociation constant (K d) of CbuqOBP1 with 1-NPN.

C. buqueti adults = test system: C. buqueti adults; parameters: method as in Cai, 2018; conditions: previous behavioral studies; ref Cai, 2018; cited from earlier work
[3] = test system: Xylotrechus rusticus (Coleoptera) adults; parameters: method as in Li L. et al., 2013; Chen et al., 2014; conditions: ref Li L. et al., 2013; Chen et al., 2014; cited from earlier work
[4] = test system: Bradysia odoriphaga (Diptera) adults; parameters: method as in Li L. et al., 2013; Chen et al., 2014; conditions: ref Li L. et al., 2013; Chen et al., 2014; cited from earlier work
[5] = recombinant CbuqOBP1 and 1-NPN both 2 μM, 50 mM Tris-HCl pH 7.4, room temperature, read-out: IC50

Structure (SMILES): C=Cc1ccccc1 [Styrene]
- IC50 (CbuqOBP1 [1]): 22.1 µM

Structure (SMILES): c1ccc(Nc2cccc3ccccc23)cc1 [1-NPN, N-phenyl-1-naphthylamine]
- Kd (CbuqOBP1 [2]): 24.2 µM

Structure (SMILES): Cc1cccc(C)c1 [M-xylene]
- IC50 (CbuqOBP1 [1]): 36 µM

Structure (SMILES): C=C(C)[C@H]1CC=C(C)CC1 [(+)-Limonene]
- IC50 (CbuqOBP1 [1]): 18.8 µM

Structure (SMILES): CCCC/C=C/C=C/C=O [trans,trans-2,4-Nonadienal]
- Ki (CbuqOBP1 [1]): 22.4 µM
- IC50 (CbuqOBP1 [1]; [5]): 24.3 µM

Structure (SMILES): CCCCCC(=O)OCC [Ethyl hexanoate]
- Ki (CbuqOBP1 [1]): 19.5 µM
- IC50 (CbuqOBP1 [1]; [5]): 21 µM

Structure (SMILES): C[C@@H]1CC[C@H]2C(C)(C)[C@H]3C[C@@]12CC[C@@]3(C)O [Cedrol]
- IC50 (CbuqOBP1 [1]): 40.3 µM

Structure (SMILES): Oc1ccccc1 [Phenol]
- attractant for adults (C. buqueti adults): efficient attractants
- IC50 (CbuqOBP1 [1]): 11.4 µM

Structure (SMILES): C=CC(C)(O)CCC=C(C)C (stereo not shown) [Linalool]
- IC50 (CbuqOBP1 [1]): 14.5 µM

Structure (SMILES): c1ccc2scnc2c1 [Benzothiazole]
- attractiveness to adults [3]: highly attractive
- attractiveness to adults [4]: highly attractive
- attractant for adults (C. buqueti adults): efficient attractants
- IC50 (CbuqOBP1 [1]): 12 µM
